Laboratory results taken from EP4759807A1, “PROTEOLYSIS TARGETING CHIMERA COMPOUND FOR DEGRADING IRAK4 AND USE THEREOF” (Shenzhen Zhongge Biological Technology Co., Ltd., priority 2023, dated 2025).
Where a name gives a salt, the structure may show the parent alone.

Tests used:
[1] = target: T1, IRAK4 (Homo sapiens, UniProt Q9NWZ3); assay: Hibit fluorescence detection of proteolysis (IRAK4-HiBiT in HEK293T cells); assay type: cell-based; set-up: host or cells: HEK293T (ATCC); conditions: for Dmax: HEK-293T; for DC50: IRAK4-HiBiT, HEK293T cells, 24 h
T1 sequence (Q9NWZ3 1-460): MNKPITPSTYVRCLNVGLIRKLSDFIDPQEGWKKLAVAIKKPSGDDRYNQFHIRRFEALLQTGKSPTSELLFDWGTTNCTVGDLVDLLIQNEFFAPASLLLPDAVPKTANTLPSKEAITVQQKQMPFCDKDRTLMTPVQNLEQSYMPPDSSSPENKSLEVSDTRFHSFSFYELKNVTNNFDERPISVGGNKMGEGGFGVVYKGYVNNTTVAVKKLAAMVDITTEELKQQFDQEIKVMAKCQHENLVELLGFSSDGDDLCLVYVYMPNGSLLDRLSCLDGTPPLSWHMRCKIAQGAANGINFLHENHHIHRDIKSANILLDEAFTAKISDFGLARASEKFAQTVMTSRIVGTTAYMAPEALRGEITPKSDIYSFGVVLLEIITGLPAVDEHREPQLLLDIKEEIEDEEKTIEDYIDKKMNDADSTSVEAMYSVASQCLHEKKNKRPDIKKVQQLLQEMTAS
How it was run: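 Degradation read-out: luminescence from lytic HiBiT detection (15 min, room temperature) after 24 h compound exposure (37 °C, 5% CO2) of HEK293T cells transiently expressing IRAK4 fused to a HiBiT tag. Data fitted to a bell-shaped four-parameter model giving two EC50 values.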

[2] = target: T1, IRAK4; assay: WB detection of proteolysis (Western Blot, THP-1 cells); assay type: cell-based; conditions: Western Blot, THP-1 cells, 24 h; for DC50: read-out: DC50; for Dmax: read-out: Dmax
How it was run: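 IRAK4 level in RIPA lysates read by Western blot with Odyssey imaging; values from bell-shaped non-linear fit with two four-parameter sections (Plateau1, Plateau2, Dip, LogEC50_1/2, nH1/2).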

Structure (SMILES)	Dmax [1] [%]	DC50 [1] [nM]	DC50 [2] [nM]	Dmax [2] [%]
Cn1c(=O)n(C2CCC(=O)NC2=O)c2cccc(N3CCC(N4CCN(C[C@H]5CC[C@H](n6cc(-n7cc(-c8cnn9ccc(N%10CCC(C)(O)CC%10)nc89)nn7)c(C(F)F)n6)CC5)CC4)CC3)c21 (stereo partly shown) [Example 124]	> 80	< 0.5	< 10	60 to 70
Cn1c(=O)n(C2CCC(=O)NC2=O)c2cccc(N3CCC(N4CCN(C[C@H]5CC[C@H](n6cc(-n7cc(-c8cnn9ccc(NCCC(C)(C)O)nc89)nn7)c(C(F)F)n6)CC5)CC4)CC3)c21 (stereo partly shown) [Example 125]	> 80	< 0.5	< 10	> 70
Cn1c(=O)n(C2CCC(=O)NC2=O)c2cccc(N3CCC4(CCN(C[C@H]5CC[C@H](n6cc(-n7cc(-c8cnn9ccc(NCCC(C)(C)O)nc89)nn7)c(C(F)F)n6)CC5)CC4)CC3)c21 (stereo partly shown) [Example 126]	> 80	< 0.5	< 10	> 70
Cn1c(=O)n(C2CCC(=O)NC2=O)c2cccc(N3CCC(N4CCN(C[C@H]5CC[C@H](n6cc(-n7cc(-c8cnn9ccc(N%10CCNCC%10)nc89)nn7)c(C(F)F)n6)CC5)CC4)CC3)c21 (stereo partly shown) [Example 127, 3-(4-(4-(4-(((1r,4r)-4-(3-(difluoromethyl)-4-(4-(5-(piperazin-1-yl))pyrazolo[1,5-a]pyrimidin-3-yl)-1H-1,2,3-triazol-1-yl)-1H-pyrazol-1-yl)cyclohexyl)methyl)piperazin-1-yl)piperidin-1-yl)-3-methyl-2-oxo-2,3-dihydro-1H-benzo[d]imidazol-1-yl)piperidine-2,6-dione dihydrochloride]	> 80	< 0.5	10 to 30	> 70
Cn1c(=O)n(C2CCC(=O)NC2=O)c2cccc(N3CCC4(CCN(C[C@H]5CC[C@H](n6cc(-n7cc(-c8cnn9ccc(N%10CCNCC%10)nc89)nn7)c(C(F)F)n6)CC5)C4)CC3)c21 (stereo partly shown) [Example 128, 3-(4-(2-(((1r,4r)-4-(3-(difluoromethyl)-4-(4-(5-(piperazin-1-yl)pyrazolo[1,5-a]pyrimidin-3-yl)-1H-1,2,3-triazol-1-yl)-1H-pyrazol-1-yl)cyclohexyl)methyl)-2,8-diazaspiro[4.5]dec-8-yl)-3-methyl-2-oxo-2,3-dihydro-1H-benzo[d]imidazol-1-yl)piperidine-2,6-dione dihydrochloride]	> 80	< 0.5	< 10	> 70
Cn1c(=O)n(C2CCC(=O)NC2=O)c2cccc(N3CCN(C[C@H]4CC[C@H](n5cc(-n6cc(-c7cnn8ccc(N9CCNCC9)nc78)nn6)c(C(F)F)n5)CC4)CC3)c21 (stereo partly drawn) [Example 132, 3-(4-(1R,4R)-4-(3-difluoromethyl)-4-(4-(5-(piperazin-1-yl)pyrazolo[1,5-a]pyrimidin-3-yl)-1H-1,2,3-triazol-1-yl)-1H-pyrazol-1-yl)cyclohexyl)methyl)piperazin-1-yl)-3-methyl-2-oxo-2,3-dihydro-1H-benzoimidazol-1-yl)piperidine-2,6-dione dihydrochloride]	> 80	0.5 to 1	< 10	60 to 70
Cn1c(=O)n(C2CCC(=O)NC2=O)c2cccc(N3CCC(N4CCN(C[C@H]5CC[C@H](n6cc(-n7cc(-c8cnn9ccc(N%10CCC(O)CC%10)nc89)nn7)c(C(F)F)n6)CC5)CC4)CC3)c21 (stereo partly shown) [Example 135]	> 80	< 0.5	< 10	> 70
Cn1c(=O)n(C2CCC(=O)NC2=O)c2cccc(N3CCC4(CCN(C[C@H]5CC[C@H](n6cc(-n7cc(-c8cnn9ccc(N%10CCC(O)CC%10)nc89)nn7)c(C(F)F)n6)CC5)CC4)CC3)c21 (stereo partly shown) [Example 136]	> 80	< 0.5	< 10	> 70
Cn1c(=O)n(C2CCC(=O)NC2=O)c2cccc(N3CCC4(CCN(C[C@H]5CC[C@H](n6cc(-n7cc(-c8cnn9ccc(N%10CCC(O)CC%10)nc89)nn7)c(C(F)F)n6)CC5)C4)CC3)c21 (stereo partly shown) [Example 139]	> 80	< 0.5	< 10	> 70
Cn1c(=O)n(C2CCC(=O)NC2=O)c2cccc(N3CCN(C[C@H]4CC[C@H](n5cc(-n6cc(-c7cnn8ccc(N9CCC(O)CC9)nc78)nn6)c(C(F)F)n5)CC4)CC3)c21 (stereo partly shown) [Example 140]	> 80	< 0.5	10 to 30	> 70
Cn1c(=O)n(C2CCC(=O)NC2=O)c2cccc(N3CCN(C[C@H]4CC[C@H](n5cc(-n6cc(-c7cnn8ccc(N9CCC[C@H](O)C9)nc78)nn6)c(C(F)F)n5)CC4)CC3)c21 (stereo partly shown) [Example 141]	> 80	< 0.5	< 10	> 70
Cn1c(=O)n(C2CCC(=O)NC2=O)c2cccc(N3CCC4(CCN(C[C@H]5CC[C@H](n6cc(-n7cc(-c8cnn9ccc(N%10CCC[C@H](O)C%10)nc89)nn7)c(C(F)F)n6)CC5)CC4)CC3)c21 (stereo partly shown) [Example 142]	> 80	< 0.5	< 10	> 70
Cn1c(=O)n(C2CCC(=O)NC2=O)c2cccc(N3CCN(C4CCN(C[C@H]5CC[C@H](n6cc(-n7cc(-c8cnn9ccc(N%10CCC[C@H](O)C%10)nc89)nn7)c(C(F)F)n6)CC5)CC4)CC3)c21 (stereo partly shown) [Example 144]	> 80	< 0.5	< 10	> 70
Cn1c(=O)n(C2CCC(=O)NC2=O)c2cccc(N3CCC4(CCN(C[C@H]5CC[C@H](n6cc(-n7cc(-c8cnn9ccc(N%10CCC[C@H](O)C%10)nc89)nn7)c(C(F)F)n6)CC5)C4)CC3)c21 (stereo partly shown) [Example 145]	> 80	< 0.5	< 10	> 70
Cn1c(=O)n(C2CCC(=O)NC2=O)c2cccc(N3CCC4(CCN(C[C@H]5CC[C@H](n6cc(-n7cc(-c8cnn9ccc(N[C@H]%10CCCC[C@H]%10O)nc89)nn7)c(C(F)F)n6)CC5)C4)CC3)c21 (stereo partly shown) [Example 147]	> 80	< 0.5	10 to 30	> 70
Cn1c(=O)n(C2CCC(=O)NC2=O)c2cccc(N3CCC4(CCN(C[C@H]5CC[C@H](n6cc(-n7cc(-c8cnn9ccc(N[C@H]%10CCCC[C@H]%10O)nc89)nn7)c(C(F)F)n6)CC5)CC4)CC3)c21 (stereo partly shown) [Example 148]	> 80	< 0.5	10 to 30	> 70
Cn1c(=O)n(C2CCC(=O)NC2=O)c2cccc(N3CCC4(CCN(C[C@H]5CC[C@H](n6cc(-n7cc(-c8cnn9ccc(N[C@@H]%10CCCC[C@@H]%10O)nc89)nn7)c(C(F)F)n6)CC5)CC4)CC3)c21 (stereo partly shown) [Example 151]	> 80	< 0.5	< 10	> 70
Cn1c(=O)n(C2CCC(=O)NC2=O)c2cccc(N3CCN(C4CCN(C[C@H]5CC[C@H](n6cc(-n7cc(-c8cnn9ccc(N[C@@H]%10CCCC[C@@H]%10O)nc89)nn7)c(C(F)F)n6)CC5)CC4)CC3)c21 (stereo partly shown) [Example 153]	> 80	< 0.5	< 10	> 70
Cn1c(=O)n(C2CCC(=O)NC2=O)c2cccc(N3CCC4(CCN(C[C@H]5CC[C@H](n6cc(-n7cc(-c8cnn9ccc(N[C@@H]%10CCCC[C@@H]%10O)nc89)nn7)c(C(F)F)n6)CC5)C4)CC3)c21 (stereo partly shown) [Example 154]	> 80	< 0.5	< 10	> 70
